Among the data in patent US6066672A, “Amino compounds and angiotensin IV receptor agonists” (Taisho Pharmaceutical Co., Ltd., priority 1996, dated 2000) are IC50 values, retold here.

pIC50: −log10 of the molar value. Where a name gives a salt, the structure may show the parent alone.

The target in this test is T1, angiotensin IV receptor (Cavia porcellus, UniProt H0VNM7).
T1 construct: The Hartley guinea pig hippocampus was homogenized in a 50 mM Tris hydrochloride buffer solution; from tissue; host or cells: Hartley guinea pig hippocampus, crude membrane (48,000 x g precipitate)
T1 sequence (H0VNM7 1-1025): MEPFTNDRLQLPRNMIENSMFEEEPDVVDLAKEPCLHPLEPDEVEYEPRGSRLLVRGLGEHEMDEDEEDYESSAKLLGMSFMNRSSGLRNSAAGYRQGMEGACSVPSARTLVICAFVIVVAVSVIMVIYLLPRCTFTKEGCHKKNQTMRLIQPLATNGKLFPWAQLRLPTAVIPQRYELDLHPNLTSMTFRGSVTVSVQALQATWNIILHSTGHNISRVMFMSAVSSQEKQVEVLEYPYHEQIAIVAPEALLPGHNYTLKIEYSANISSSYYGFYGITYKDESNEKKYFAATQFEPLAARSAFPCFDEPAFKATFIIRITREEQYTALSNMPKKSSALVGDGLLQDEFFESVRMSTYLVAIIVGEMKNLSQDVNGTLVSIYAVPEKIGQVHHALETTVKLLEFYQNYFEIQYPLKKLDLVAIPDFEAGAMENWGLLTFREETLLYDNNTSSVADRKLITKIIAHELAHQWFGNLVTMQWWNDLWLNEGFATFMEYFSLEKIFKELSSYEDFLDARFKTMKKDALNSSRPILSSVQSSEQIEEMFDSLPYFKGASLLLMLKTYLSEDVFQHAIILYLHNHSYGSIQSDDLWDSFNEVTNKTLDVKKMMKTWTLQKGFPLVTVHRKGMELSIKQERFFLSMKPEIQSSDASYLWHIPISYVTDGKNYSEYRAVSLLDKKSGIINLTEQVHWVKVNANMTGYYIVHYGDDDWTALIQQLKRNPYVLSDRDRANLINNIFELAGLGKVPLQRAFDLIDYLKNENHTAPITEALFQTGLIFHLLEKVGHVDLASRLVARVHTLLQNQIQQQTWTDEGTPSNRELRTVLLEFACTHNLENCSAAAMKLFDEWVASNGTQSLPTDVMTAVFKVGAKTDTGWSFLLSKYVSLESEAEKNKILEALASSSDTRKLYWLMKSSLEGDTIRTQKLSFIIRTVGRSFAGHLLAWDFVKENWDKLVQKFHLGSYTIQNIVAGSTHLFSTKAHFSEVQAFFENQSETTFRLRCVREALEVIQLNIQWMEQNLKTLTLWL
Kind of test: binding capability to angiotensin IV receptor, inhibition of 125I-angiotensin IV binding to guinea pig hippocampus membrane. The following applies: 0.2 nM 125I-angiotensin IV, Hartley guinea pig hippocampus crude membrane, 37° C., 90 minutes, pH 7.4. As for the experimental part:
The binding capability to angiotensin IV receptor was measured by using Hartley guinea pig hippocampus referring to the method described by Miller-Wing et al., J. Pharmacol. Exp. Ther., vol. 266, pp.1718 (1993). The Hartley guinea pig hippocampus was homogenized in a 50 mM Tris hydrochloride buffer solution (pH 7.4) containing 1 mM ethylenediamine-N,N,N',N'-tetraacetic acid (EDTA) and 100 μM phenylmethanesulfonyl fluoride (PMSF). After centrifugation at 900× g, the resulting supernatant was further centrifuged at 48,000× g. The precipitate was washed once with the same buffer solution and suspended in 50 mM Tris hydrochloride buffer solution (pH 7.4) containing 150 mM sodium chloride, 1 mM EDTA, 100 μM PMSF and 0.1% bovine serum albumin (BSA) to give a protein concentration of […] as a crude membrane specimen. […] The radioactivity on the filter paper was measured by using a gamma-counter. The non-specific bond was measured in the presence of 1 μM angiotensin IV, and the specific bond was calculated by subtracting the non-specific bond from the total bond.
Usually pIC50 stands for the negative decadic logarithm of the IC50, by convention in mol/L. High values mean a small IC50, low ones a large IC50. Consider `CCCC[C@H](N)CN[C@H](CN[C@H](CCc1ccccc1)CC(C)C)Cc1ccc(O)cc1` [Example 30, (R)-N-[(S)-2-[[(S)-2-aminohexyl]amino]-3-(4-hydroxyphenyl)propyl]-5-methyl-1-phenylhexan-3-amine trihydrochloride], for which the negative logarithm of the IC50 (pIC50) is 6.77.
In turn, `CCCC[C@H](N)CN[C@@H](Cc1ccc(O)cc1)C(=O)N[C@H](CCc1cccc2ccccc12)CC(C)C` [Example 16, N'-[(S)-2-aminohexyl]-N-[(R)-3-methyl-1-[2-(1-naphthyl)ethyl]butyl]-L-tyrosinamide dihydrochloride] gave a pIC50 of 8.46.
For `C=C[C@H](CC(C)C)NC(=O)[C@H](Cc1ccc(O)cc1)NC[C@@H](N)CCCC` [Example 25, N'-[(S)-2-aminohexyl]-N-[(S)-1-(2-methylpropyl)-2-propenyl]-L-tyrosinamidedihydrochloride] the value was 7.05.
For the compound `CCCC[C@H](N)CN[C@@H](Cc1ccc(O)cc1)C(=O)N[C@H](CCc1ccccc1)CC(C)C` [Example 18, N'-[(S)-2-aminohexyl]-N-[(R)-3-methyl-1-[2-phenylethyl]butyl]-L-tyrosinamide dihydrochloride], the pIC50 was 8.06.
The compound `CCCC[C@H](N)CN[C@@H](Cc1ccc(O)cc1)C(=O)N[C@H](CCc1ccc(-c2ccccc2)cc1)CC(C)C` [Example 22, N'-[(S)-2-aminohexyl]-N-[(R)-1-[2-([1,1'-biphenyl]-4-yl)ethyl]-3-methylbutyl]-L-tyrosinamide dihydrochloride] had a pIC50 of 7.05.
In turn, `CCC/C=C\[C@@H](NC(=O)[C@H](Cc1ccc(O)cc1)NC[C@@H](N)CCCC)[C@@H](C)CC` [Example 3, N'-[(S)-2-aminohexyl]-N-[(S)-(Z)-1-[(S)-1-methylpropyl]-2-hexenyl]-L-tyrosinamide dihydrochloride] had a pIC50 of 7.90.
For `CCCC[C@H](N)CN[C@@H](Cc1ccc(O)cc1)C(=O)N[C@H](CCCc1ccccc1)CC(C)C` [Example 6, N'-[(S)-2-aminohexyl]-N-[(R)-3-methyl-1-(3-phenylpropyl)butyl]-L-tyrosinamide dihydrochloride] the value was 7.74; for `CCCC[C@H](N)CN[C@H](CN[C@H](/C=C/c1ccccc1)CC(C)C)Cc1ccc(O)cc1` [Example 29, (S)-(E)-N-[(S)-2-[[(S)-2-aminohexyl]amino]-3-(4-hydroxyphenyl)propyl]-5-methyl-1-phenyl-1-hexen-3-amine trihydrochloride], 7.62.
Compound `CCCC[C@H](N)CN[C@@H](Cc1ccc(O)cc1)C(=O)N[C@@H](CCc1ccncc1)CC(C)C` [Example 10, N'-[(S)-2-aminohexyl]-N-[(S)-3-methyl-1-[2-(4-pyridyl)ethyl]butyl]-L-tyrosinamide trihydrochloride] gave a pIC50 of 7.09.
For `CCCC[C@H](N)CN[C@@H](Cc1ccc(O)cc1)C(=O)N[C@H](/C=C/c1ccncc1)CC(C)C` [Example 7, N'-[(S)-2-aminohexyl]-N-[(S)-(E)-1-(2-methylpropyl)-3-(4-pyridyl)-2-propenyl]-L-tyrosinamide trihydrochloride] the value was 9.03.
For `CCCC[C@H](N)CN[C@@H](Cc1ccc(O)cc1)C(=O)N[C@H](CCc1ccncc1)CC(C)C` [Example 8, N'-[(S)-2-aminohexyl]-N-[(R)-3-methyl-1-[2-(4-pyridyl)ethyl]butyl]-L-tyrosinamide trihydrochloride] the value was 7.82; for `CCCCC[C@@H](NC(=O)[C@H](Cc1ccc(O)cc1)NC[C@@H](N)CCCC)[C@@H](C)CC` [Example 4, N'-[(S)-2-aminohexyl]-N-[(R)-1-[(S)-1-methylpropyl]hexyl]-L-tyrosinamide dihydrochloride], 7.94; for `CCCC[C@H](N)CN[C@@H](Cc1ccc(O)cc1)C(=O)N[C@H](/C=C/c1ccc(Cl)cc1)CC(C)C` [Example 19, N'-((S)-2-aminohexyl]-N-[(S)-(E)-3-(4-chlorophenyl)-1-(2-methylpropyl)-2-propenyl]-L-tyrosinamide dihydrochloride], 9.28.
Take `CCCC[C@H](N)CN[C@@H](Cc1ccc(O)cc1)C(=O)N[C@H](CC)CC(C)C` [Example 26, N'-[(S)-2-aminohexyl]-N-[(R)-1-ethyl-3-methylbutyl]-L-tyrosinamide dihydrochloride]: the pIC50 is 7.41.
For `CCCC[C@H](N)CN[C@@H](Cc1ccc(O)cc1)C(=O)N[C@H](CCc1ccc(C(=O)O)cc1)CC(C)C` [Example 14, N'-[(S)-2-aminohexyl]-N-[(R)-3-methyl-1-[2-(4-carboxyphenyl)ethyl]butyl]-L-tyrosinamide dihydrochloride] the value was 7.58; for `CCCC[C@H](N)CN[C@@H](Cc1ccc(O)cc1)C(=O)N[C@H](/C=C/c1ccc(-c2ccccc2)cc1)CC(C)C` [Example 21, N'-[(S)-2-aminohexyl]-N-[(S)-(E)-3-([1,1'-biphenyl]-4-yl)-1-(2-methylpropyl)-2-propenyl]-L-tyrosinamide dihydrochloride], 8.22; for `CCCC[C@H](N)CN[C@@H](Cc1ccc(O)cc1)C(=O)N[C@@H](/C=C/c1ccncc1)CC(C)C` [Example 9, N'-[(S)-2-aminohexyl]-N-[(R)-(E)-1-(2-methylpropyl)-3-(4-pyridyl)-2-propenyl]-L-tyrosinamide trihydrochloride], 7.66.
For `CCCC[C@H](N)C(=O)N[C@H](CN[C@H](/C=C/c1ccccc1)CC(C)C)Cc1ccc(O)cc1` [Example 27, N-[(S)-1-[(4-hydroxyphenyl)methyl]-2-[(S)-(E)-[1-(2-methylpropyl)-3-phenyl-2-propenyl]amino]ethyl]-L-norleucinamide dihydrochloride] the value was 6.48.
`CCCC[C@H](N)CN[C@@H](Cc1ccc(O)cc1)C(=O)N[C@H](/C=C\Cc1ccccc1)CC(C)C` [Example 5, N'-[(S)-2-aminohexyl]-N-[(S)-(Z)-1-(2-methylpropyl)-4-phenyl-2-butenyl]-L-tyrosinamide dihydrochloride]: the pIC50 is 8.14.
Compound `CCCC[C@H](N)CN[C@@H](Cc1ccc(O)cc1)C(=O)N[C@H](/C=C/c1ccccc1)CC(C)C` [Example 17, N'-[(S)-2-aminohexyl]-N-[(S)-(E)-1-(2-methylpropyl)-3-phenyl-2-propenyl]-L-tyrosinamide dihydrochloride] gave a pIC50 of 9.19.
For `CCCC[C@H](N)CN[C@@H](Cc1ccc(O)cc1)C(=O)N[C@H](/C=C/c1ccc(C(=O)O)cc1)CC(C)C` [Example 13, N'-[(S)-2-aminohexyl]-N-[(S)-(E)-3-(4-carboxyphenyl)-1-(2-methylpropyl)-2-propenyl]-L-tyrosinamide dihydrochloride] the value was 8.75; for `CCCC[C@H](N)CN[C@@H](Cc1ccc(O)cc1)C(=O)N[C@H](/C=C/c1ccc2ccccc2n1)CC(C)C` [Example 23, N'-[(S)-2-aminohexyl]-N-[(S)-(E)-3-(2-quinolyl)-1-(2-methylpropyl)-2-propenyl]-L-tyrosinamide trihydrochloride], 9.28.
For `CCCC[C@H](N)CN[C@@H](Cc1ccc(O)cc1)C(=O)N[C@H](/C=C/c1cccc2ccccc12)CC(C)C` [Example 15, N'-[(S)-2-aminohexyl]-N-[(S)-(E)-1-(2-methylpropyl)-3-(1-naphthyl)-2-propenyl]-L-tyrosinamide dihydrochloride] the value was 8.42.
